# According to patent publication US10821117B2, “Estrogen therapy for brain gray matter atrophy and associated disability” (The Regents of the University of California, priority 2014, dated 2020):
# Legend:
# [1] = test system: relapsing remitting multiple sclerosis patients; assay: Delayed Recall Test, proportion with perfect score; format: in vivo, human
# Description: The estriol and placebo subjects were administered the Delayed Recall Test periodically throughout the study. A perfect score on the test is 7, and for both treatment groups, the median score was also 7. Therefore, performance was assessed by the proportion of subjects in each group who achieved a perfect score on the test. […] Logistic regression for repeated measurement was used to compare the probability having a perfect score between the two treatment groups, adjusting for age, education level, and baseline recall (Table 9).
# [2] = set-up: species or system human; settings: in vivo
# Text: Safety assessments, including clinical, blood laboratory safety testing and assessments of estriol levels, occurred at months 0, 3, 6, 12, 18, and 24. On study blood tests included complete blood count (CBC) with differential and platelets; chemistry panel including sodium, potassium, creatinine, BUN, glucose, total protein, albumin, bilirubin (total), alkaline phosphatase, AST (SGOT), and ALT (SGPT), and lipid profile (HDL, LDL and triglycerides, cholesterol. Gynecologic exams were done at month 0, 6, 18 and at month 24 exit, with uterine ultrasounds at months 6, 18 and at month 24 exit. Mammograms were done in screening and at month 24 exit. Adverse event analysis was based on the percentage of patients who discontinued the study and the percentage of patients who discontinued the study possibly due to adverse events.
# The rate of discontinuation was similar between groups (FIG. 1). A total of 60 patients (73.2%) in the Estriol plus GA group and 56 (73.7%) in the Placebo plus GA group completed the 24 month study treatment duration. Of the 158 patients, 15.8% discontinued the study during the first year (7.6% in the Estriol plus GA group and 8.2% in the Placebo plus GA group), and an additional 10.7% discontinued the study during the second year (6.3% and 4.4%, respectively). […] The most common reasons for discontinuation were lost to follow up or patient's decision based on family issues or time constraints.
# [3] = test system: relapsing remitting multiple sclerosis patients; assay: Brain MRI enhancing lesions and brain volumes (pairwise Jacobian integration); format: in vivo, human
# Description: Linear mixed effects model was carried out to compare the percent change in whole gray matter and cortical gray matter between treatment groups. For the exploratory endpoints of EDSS, PASAT, and brain volume measures, linear mixed effects model was used to compare treatment groups at 12 and 24 months. Linear mixed effects model was carried out to evaluate the association between PASAT change and percent brain volume change.
# • For Number of Enhancing Lesions, the data in this column are E+GA vs. P+GA mean of lesions number ratio (95% CI) and p-value based on mixed effect negative binomial regression model. • For Lesion Activity on Brain MRI, the data in this column are E+GA vs. P+GA odds ratio (95% CI) and p-value based on mixed effect logistic regression model. MRI Methodologies
# Dual-echo fast spin echo: TR10000, TE12/95, 50 slices, 1×1×3 mm. Fluid attenuated inversion recovery (FLAIR): TR10380, TE88, T188, T12500, 50 slices, 1×1×3 mm. Minor changes were allowed to accommodate different platforms and field strengths at each site. MRI data in Dicom format were fully anonymized prior to transfer and then uploaded to the central MRI reading center database. Prior to study onset, each site provided a dummy scan utilizing the standardized sequences for review by the central MRI reading center to verify scan quality and fidelity. Quality control was maintained at each site using standard procedures for clinical scanners (daily phantoms, stability testing). Quarterly phantoms were collected from 12 of the 15 sites, most using the standard American College of Radiology (ACR) phatom. One site upgraded from a Siemens 1.5T to a 3.0T in November 2013, resulting in the acquisition of one month 24 scan on the new scanner. One site upgraded from a Phillips Achieva 3.0T to a Pillips Intera 3.0T after the first subject completed month 24. All subsequent studies were performed on the Intera.
# MRI brain, whole gray matter, whole white matter and cortical gray matter volumes were determined using a pairwise Jacobian integration (PJI) method. Pre-processing for structural T1-weighted images included 1) N3 non-uniformity correction, 2) histogram-based intensity normalization, 3) linear standard space registration using ICBM 2009c nonlinear symmetric template, 4) patch-based brain extraction, and 5) lesion-inpainting. Inputs to PJI were a pair of baseline and follow-up pre-processed structural T1-weighed images. The PJI consisted of 1) linear skull-constrained symmetric registration, 2) halfway transformation and resampling, 3) nonlinear symmetric registration using ANTS, and 4) voxelwise Jacobian determinant calculation on the warp field. Whole gray matter and whole white matter tissue masks were generated by SPM8 Segment function. Additional nonlocal means denoising was applied. For whole brain tissue masks, the whole gray matter and whole white matter masks were combined. For cortical gray matter mask, a standard cortical mask was nonlinearly transformed and merged with gray matter mask. The standard template was the ICBM (ICBM 2009c nonlinear symmetric version), and the nonlinear registration was performed by ANTS. Finally, the Jacobian determinants were averaged within the masks for percent volume change in cortical gray matter, whole gray matter, whole white matter, and whole brain.
# [4] = negative value indicates improvement
# [5] = negative value indicates worsening
substance,measurement,setting,value
glatiramer acetate [Placebo + GA],Percentage of subjects achieving a perfect score on the Delayed Recall Test,[1]; Month 3,65.9 (48/74) %
same,Percentage of subjects achieving a perfect score on the Delayed Recall Test,[1]; Month 6,76.1 (54/71) %
same,Percentage of subjects achieving a perfect score on the Delayed Recall Test,[1]; Month 12,69.8 (44/63) %
same,Percentage of subjects achieving a perfect score on the Delayed Recall Test,[1]; Month 18,65.4 (36/55) %
same,Percentage of subjects achieving a perfect score on the Delayed Recall Test,[1]; Month 24,75.0 (42/56) %
same,"Delayed Recall Test, Estimated perfect score rate (95% CI)","[1]; logistic regression for repeated measurement, adjusted for age, education level, baseline recall","73.2 (65.7, 79.5) %"
same,Adverse events leading to discontinuation - (%),[2],(6%)
same,Endometrial biopsies performed - (%),[2],(8) %
same,Endometrial thickness >8 mm (ultrasound) - (%),[2],(36) %
same,"Fibrocystic disease on clinical exam, number",[2],4
same,"Fibrocystic disease on clinical exam, value in parentheses",[2],(5)
same,Fibroids (ultrasound) - (%),[2],(11) %
same,Mammogram with malignancy,[2],0
same,Vaginal infection - no. of events,[2],occurred more
same,"Lesion activity on Brain MRI - proportion of patients with enhancing lesion, Month 12 % (95% CI)",[3]; Month 12,21.0 (10.8-31.1) %
same,"Lesion activity on Brain MRI - proportion of patients with enhancing lesion, Month 24 % (95% CI)",[3]; Month 24,14.6 (5.2-23.9) %
same,cortical gray matter volume change from baseline,"[3]; month 12, FIG. 7C, mean percent change from baseline",−0.74%
same,whole gray matter volume change from baseline,"[3]; month 12, FIG. 7D, mean percent change from baseline",−0.68%
same,"Enhancing Lesion Volume, Change from baseline at Mon 12, Mean ± SD",[3]; [4],−18.7 ± 184
same,"Enhancing Lesion Volume, Change from baseline at Mon 12, Median",[3]; [4],0
same,"Enhancing Lesion Volume, Change from baseline at Mon 24, Mean ± SD",[3]; [4],−34.0 ± 120
same,"Enhancing Lesion Volume, Change from baseline at Mon 24, Median",[3]; [4],0
same,"Number of Enhancing Lesions, Change from baseline to Mon 12, Mean ± SD",[3]; [4],−0.5 ± 1.8
same,"Number of Enhancing Lesions, Change from baseline to Mon 12, Median",[3]; [4],0
same,"Number of Enhancing Lesions, Change from baseline to Mon 24, Mean ± SD",[3]; [4],−0.5 ± 2.4
same,"Number of Enhancing Lesions, Change from baseline to Mon 24, Median",[3]; [4],0
same,"Cortical gray matter volume % change from baseline at Month 12, Mean ± SD",[3]; [5],−0.72 ± 0.80%
same,"Cortical gray matter volume % change from baseline at Month 12, Median",[3]; [5],−0.67%
same,"Cortical gray matter volume % change from baseline at Month 24, Mean ± SD",[3]; [5],−1.04 ± 0.87%
same,"Cortical gray matter volume % change from baseline at Month 24, Median",[3]; [5],−0.93%
same,"White matter volume % change from baseline at Month 12, Mean ± SD",[3]; [5],−0.20 ± 0.83%
same,"White matter volume % change from baseline at Month 12, Median",[3]; [5],−0.11%
same,"White matter volume % change from baseline at Month 24, Mean ± SD",[3]; [5],−0.54 ± 1.12%
same,"White matter volume % change from baseline at Month 24, Median",[3]; [5],−0.56%
same,"Whole Brain volume % change from baseline at Month 12, Mean ± SD",[3]; [5],−0.50 ± 0.64%
same,"Whole Brain volume % change from baseline at Month 12, Median",[3]; [5],−0.43%
same,"Whole Brain volume % change from baseline at Month 24, Mean ± SD",[3]; [5],−0.78 ± 0.73%
same,"Whole Brain volume % change from baseline at Month 24, Median",[3]; [5],−0.91%
same,"Whole gray matter volume % change from baseline at Month 12, Mean ± SD",[3]; [5],−0.69 ± 0.71%
same,"Whole gray matter volume % change from baseline at Month 12, Median",[3]; [5],−0.68%
same,"Whole gray matter volume % change from baseline at Month 24, Mean ± SD",[3]; [5],−0.95 ± 0.76%
same,"Whole gray matter volume % change from baseline at Month 24, Median",[3]; [5],−0.93%
